Laboratory results reported in patent US10344037B2, “Use of the FL-one hundred eighteen core chemical structure platform to generate FL-one hundred eighteen derivatives for treatment of human disease” (priority 2014, dated 2019).

Assays:
HCT116-G7 cells = assay: cells; type: cell-based, human
Description: Cancer cell viability and growth are determined by MTT assay. […] MTT is used as a colorimetric substrate for measuring cell viability and growth. When cell growth is inhibited, there is an alteration of cellular redox activity, and thus rendering cells unable to reduce the MTT dye. Cells are seeded in 96 well plates overnight and then treated with or without a compound/drug in the presence or absence of an protein molecule inhibitor (e.g. ABCG2 inhibitor ko143) for 48-72 hours, MTT is added to a final concentration 0.5 mg/ml. Cells are continuously incubated in a 5% CO2 incubator at 37° C. for 4 h with MTT and then lysed with a cell lysis buffer (20% SDS, 50% N,N-dimethylformamide, pH 4.7), 100 μl per well, for 4 h in the incubator. Subsequently, cell absorbance in each well is measured at 570 nm with an Ultra Microplate Reader (Bio-Tek Instruments). Results are reported as the mean±SD from 3-5 independent assays at each point. […] After 72 hours, media is removed and cells are harvested using 0.5 ml of 0.25% Trypsin-EDTA. Cells are counted and viability is analyzed on a Vi-CELL XR Cell Viability Analyzer (Beckman Coulter).

[1] = tested on: SW620 and HCT-8 colon cancer cells; assay: MTT assay with ABC transporter inhibitors; type: cell-based, human; details: sildenafil 50 μM, 3 days
Description: Subconfluent SW620, HCT-8, and HCT-116 cells were lysed and analyzed for the expression of MDR1 and ABCG2 using western blots (WB). Actin is the internal control. […] Cell growth/viability was then analyzed by MTT assays. Each time point in the individual curve is the mean±SD from 3 to 5 independent assays. […] Drugs were then washed out and cells were allowed to grow in new medium without drugs for 2 weeks. Cell colonies were stained with crystal violet solution; images were digitally taken. Triplicate results are shown.

[2] = tested on: pancreatic cancer PDX tumors (12872, 12914, 14244, 17624, 19015); assay: Pancreatic cancer patient-derived xenografts (PDX); design: species or system SCID mice; details: mouse, in vivo
HdmX, Hdm2 = assay: HdmX and Hdm2 protein and mRNA levels in HCT-8 cells
Description: Rescue of HdmX degradation by proteasome inhibitor MG132. […] Cell lysates are then analyzed by immunoblotting of HdmX. Actin expression is used as an internal control.

CC[C@@]1(O)C(=O)OCc2c1cc1n(c2=O)Cc2cc3cc4c(cc3nc2-1)OCO4 [FL118]
IC50 (HCT116-G7 cells): 1.19 nM
RP (HCT116-G7 cells; IC50 of topotecan divided by IC50 of the drug): 16.22
sensitization by multi-efflux pump inhibitor sildenafil [1]: sildenafil does not sensitize FL118
efficacy on different PDX tumors of the same type [2]: much different efficacy to different tumors of the same type
mRNA levels of HdmX and p21 (quantitative real time PCR) (HdmX, Hdm2; FL118 treatment for 8 h): does not significantly alter the mRNA levels of HdmX but increases the control gene p21 mRNA levels
time to HdmX downregulation after treatment (HdmX, Hdm2; HCT-8 cells, 100 nM, time course): ≤ 4 h
proteasomal degradation of HdmX and Hdm2 (HdmX, Hdm2; HCT-8 cells, 10 and 100 nM): promotes proteasomal degradation of HdmX but not Hdm2
